The values that follow come from article PMC8402032, “Unsymmetric Cisplatin-Based Pt(IV) Conjugates Containing a PARP-1 Inhibitor Pharmacophore Tested on Malignant Pleural Mesothelioma Cell Lines” (Molecules, 2021).

Structures are written as SMILES.

Assay [1] relates to MSTO-211H cells. Put plainly: Cell uptake (intracellular Pt by ICP-MS). It is filed as cell-based, human. The conditions noted are these: 10 μM, 4 h treatment, mean ± sd. As to the method: Cellular accumulation of compounds 6–9 was evaluated by means of the intracellular Pt uptake after 4 h treatment of MSTO-211H cells and expressed as ng Pt per 10^6 cells (Table 1). As expected, the Fmoc protection of 6 and 7 enhances the lipophilicity of the complexes, facilitating their cell uptake. Also the elongation of the organic linker from -(CH2)2- to -(CH2)6- increases (to a minor extent) the lipophilicity in 7 and 9 with respect to 6 and 8.
MSTO-211H cells were seeded in […] Petri dishes and challenged with the compounds and mixtures under investigations (10 μM) in complete medium. At the end of the exposure, cells were washed three times with phosphate buffered saline (PBS) and detached from the Petri dishes using 0.05% Trypsin 1X + 2% EDTA (HyClone, Thermo Fisher). The cells were harvested in fresh complete medium and an automatic cell counting device (Countess®, Life Technologies, Carlsbad, CA, USA) was used to measure the number and the mean diameter from every cell count. The harvested cells were transferred into a borosilicate glass tube and centrifuged at 1100× g rpm for 5 min at room temperature. The supernatant was carefully removed by aspiration, but about 200 μL of the supernatant was left in order to limit the cellular loss. Finally, the cellular pellets were stored at −80 °C. Platinum content determination was performed by ICP-MS (Thermo Optek X Series 2). Complete mineralization was obtained by the addition of 70% w/w HNO3 to each sample (after defrosting), followed by incubation for 1 h at 60 °C in an ultrasonic bath. Before the ICP-MS measurement, the HNO3 was diluted to a final 1% concentration. The instrumental settings were optimized to yield maximum sensitivity for platinum, and the most abundant isotopes of Pt (m/z = 195) and In (m/z = 115, used as internal standard) were quantified. The level of Pt found in cells after the treatment was normalized to the cell number and expressed as ng of Pt per 10^6 cells.

Assay [2] has as its system MSTO-211H cells. As to the kind of experiment: γH2AX foci immunofluorescence. The class given is cell-based, human. The conditions noted are these: 5 µM, 72 h. As to the method:
This is in tune with the activation by reduction mechanism (Scheme 1) that is able to generate CDDP in the cells.
MSTO-211H cells were plated on slides and treated for 72 h with diluent or 5 μM complex 6. Slides were then fixed for 20 min with 4% paraformaldehyde (Sigma-Aldrich), rinsed with PBS, and then the cells were permeabilized for 5 min in 0.1% Triton X-100, followed by three 5 min PBS washes. Slides were treated thrice for 10 min in a blocking solution of 5% bovine serum albumin (BSA) (Invitrogen). Mouse anti-γH2AX antibody (Millipore) was added (1:100 in 1% BSA) and incubated for 1 h in a dark, humidified environment at room temperature. Slides were then exposed to a secondary goat anti-mouse antibody, FITC (1:100 in PBS) and incubated for 1 h in the dark, humidified environment at room temperature. Slides were rinsed thrice in PBS, mounted, and cell imaged with a Leica fluorescence microscope.
Figure 4 (A) Representative Western blot showing poly(ADP-ribose) (PAR) and PARP-1 expression following 72 h MSTO-211H cell treatment with diluent (Ctrl) or 5 µM concentrations of cisplatin (CDDP), 6, CDDP + 3-ABA combination (1:1 ratio), and 3-ABA alone. HSC70 protein was used as loading control. (B) Immunocytochemistry was used to capture representative γH2AX focus images following 72 h MSTO-211H cell treatment with diluent (Ctrl) or 5 µM of complex 6.

In another assay the target is T1, PARP-1 (Homo sapiens, UniProt P09874).
T1 construct: endogenous in cells; host or cells: MSTO-211H cells
As to the kind of experiment: Cellular thermal shift assay (CETSA) for in-cell PARP-1 target engagement. The class given is binding. The settings on record: MSTO-211H intact cells, 50 µM, 15 min; 52, 56 and 60 °C. An excerpt: In order to confirm that PARP-1 is the direct target of 6, the cellular thermal shift assay (CETSA®) was employed. This assay is based on the biophysical principle of ligand-induced thermal stabilization of target proteins. Indeed, ligand-bound proteins are stabilized by their interacting partner and melt at a higher temperature with respect to the native protein. The test involves the drug treatment of the cellular system of choice, the heating of the cell to different temperatures, and the quantification of the presence of target protein in the soluble fraction by Western blotting to validate and quantify target engagement of drugs in cells and tissues.
Multiple aliquots of MSTO-211H intact cells, previously incubated with the diluent, 3-ABA or 6, were heated to different temperatures ranging from 48 °C to 60 °C. After lysis, the soluble fractions were analyzed by SDS-PAGE followed by Western blot. In Figure 6, the stabilities of 6 and 3-ABA, at 52, 56, and 60 °C, are compared.
For the intact cell experiments, MSTO-211H cells were treated with the diluent of the compound (Ctrl) or 6 (50 µM) in complete medium for 15 min at 37 °C, in a humidified environment containing 5% CO2. […] The supernatants were then analyzed by SDS-PAGE followed by Western blot analysis as previously described. […]

T1 sequence (P09874 whole entry): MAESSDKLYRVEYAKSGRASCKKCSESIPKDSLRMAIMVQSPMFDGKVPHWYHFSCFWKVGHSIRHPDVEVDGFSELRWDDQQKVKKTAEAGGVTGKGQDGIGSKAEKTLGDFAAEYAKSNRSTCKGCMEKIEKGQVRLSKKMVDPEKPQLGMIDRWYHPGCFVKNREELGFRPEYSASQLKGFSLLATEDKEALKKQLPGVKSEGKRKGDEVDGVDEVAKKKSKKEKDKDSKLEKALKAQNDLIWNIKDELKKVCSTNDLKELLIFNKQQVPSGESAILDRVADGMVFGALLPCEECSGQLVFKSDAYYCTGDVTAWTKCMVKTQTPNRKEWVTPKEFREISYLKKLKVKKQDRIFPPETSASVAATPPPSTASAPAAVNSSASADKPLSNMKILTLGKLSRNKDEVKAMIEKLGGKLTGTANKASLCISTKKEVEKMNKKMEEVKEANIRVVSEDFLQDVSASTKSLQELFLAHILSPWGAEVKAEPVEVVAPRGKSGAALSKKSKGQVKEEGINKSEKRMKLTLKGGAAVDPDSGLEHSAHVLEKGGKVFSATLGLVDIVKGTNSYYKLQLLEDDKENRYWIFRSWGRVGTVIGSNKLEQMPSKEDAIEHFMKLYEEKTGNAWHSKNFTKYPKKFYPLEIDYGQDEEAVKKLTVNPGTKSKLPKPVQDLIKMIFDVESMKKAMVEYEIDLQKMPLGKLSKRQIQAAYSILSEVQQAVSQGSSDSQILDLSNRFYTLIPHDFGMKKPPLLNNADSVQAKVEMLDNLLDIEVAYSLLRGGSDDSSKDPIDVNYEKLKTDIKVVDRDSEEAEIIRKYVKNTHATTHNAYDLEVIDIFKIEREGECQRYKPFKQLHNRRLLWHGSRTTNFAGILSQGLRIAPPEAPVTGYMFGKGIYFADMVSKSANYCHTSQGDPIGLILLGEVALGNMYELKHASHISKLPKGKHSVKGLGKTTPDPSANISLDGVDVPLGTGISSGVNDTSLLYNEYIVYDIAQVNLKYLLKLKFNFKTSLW

`CC(=O)[O][Pt]([NH2])([NH2])([Cl])([Cl])[O]C(=O)CCNC(=O)c1cccc(NC(=O)OCC2c3ccccc3-c3ccccc32)c1` [Compound 6, (OC-6-44)-Acetato[3-(3-(fmoc-amino)-benzamido)-propanoato]-diammine-dichlorido-platinum(IV)]: the “Pt Uptake” value with MSTO-211H cells [1] worked out at 10.64 ± 1.77 ng Pt per 10^6 Cells. For the same molecule, the “DNA damage (γH2AX foci)” value with MSTO-211H cells [2] is on record as “increased number of γH2AX foci”. In addition, the “thermal stability of PARP-1 protein levels” value on PARP-1 is “more stable to heating as compared with the control and 3-ABA groups”.
